Laboratory results reported in patent US5929097A, “Preparation and use of ortho-sulfonamido aryl hydroxamic acids as matrix metalloproteinase and tace inhibitors” (American Cyanamid Company, priority 1997, dated 1999).
Where two headings read alike, the source gives them in different places.

Tests used:
MMP-1 = target: T1, MMP-1 (Homo sapiens, UniProt P03956); assay: MMP-1 inhibition (thiopeptide/DTNB or fluorescent peptide substrate); assay type: biochemical
T1 sequence (P03956 100-469): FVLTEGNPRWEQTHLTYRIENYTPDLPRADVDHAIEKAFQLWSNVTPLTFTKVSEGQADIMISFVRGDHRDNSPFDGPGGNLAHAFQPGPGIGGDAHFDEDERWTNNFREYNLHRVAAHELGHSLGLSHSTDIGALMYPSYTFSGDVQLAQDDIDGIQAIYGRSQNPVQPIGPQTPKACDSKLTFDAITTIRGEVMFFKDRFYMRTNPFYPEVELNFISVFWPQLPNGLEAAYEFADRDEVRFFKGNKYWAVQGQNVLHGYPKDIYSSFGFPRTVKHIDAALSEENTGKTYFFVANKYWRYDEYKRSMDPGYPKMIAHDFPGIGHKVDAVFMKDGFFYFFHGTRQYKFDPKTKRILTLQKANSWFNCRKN
Description: (§1) The enzyme activity is measured by the rate of the color increase. The thiopeptide substrate is made up fresh as a 20 mM stock in 100% DMSO and the DTNB is dissolved in 100% DMSO as a 100 mM stock and stored in the dark at room temperature. Both the substrate and DTNB are diluted together to 1 mM with substrate buffer (50 mM HEPES pH 7.5, 5 mM CaCl2) before use. The stock of enzyme is diluted with assay buffer (50 mM HEPES, pH 7.5, 5 mM CaCl2, 0.02% Brij) to the desired final concentration.
(§2) Alternatively, a fluorescent peptide substrate is used. In this assay, the peptide substrate contains a fluorescent group and a quenching group. Upon cleavage of the substrate by an MMP, the fluorescence that is generated is quantitated on the fluorescence plate reader. The assay is run in HCBC assay buffer (50 mM HEPES, pH 7.0, 5 mM Ca^+2, 0.02% Brij, 0.5% Cysteine), with human recombinant MMP-1, MMP-9, or MMP-13. The substrate is dissolved in methanol and stored frozen in 1 mM aliquots. For the assay, substrate and enzymes are diluted in HCBC buffer to the desired concentrations. Compounds are added to the 96 well plate containing enzyme and the reaction is started by the addition of substrate.
(§3) For either the thiopeptide or fluorescent peptide assays, the slope of the line is calculated and represents the reaction rate. The linearity of the reaction rate is confirmed (r^2 >0.85). The mean (x±sem) of the control rate is calculated and compared for statistical significance (p<0.05) with drug-treated rates using Dunnett's multiple comparison test.

MMP-9 = MMP-9 (Homo sapiens, UniProt P14780); assay: biochemical
Sequence of MMP-9 (P14780 94-707): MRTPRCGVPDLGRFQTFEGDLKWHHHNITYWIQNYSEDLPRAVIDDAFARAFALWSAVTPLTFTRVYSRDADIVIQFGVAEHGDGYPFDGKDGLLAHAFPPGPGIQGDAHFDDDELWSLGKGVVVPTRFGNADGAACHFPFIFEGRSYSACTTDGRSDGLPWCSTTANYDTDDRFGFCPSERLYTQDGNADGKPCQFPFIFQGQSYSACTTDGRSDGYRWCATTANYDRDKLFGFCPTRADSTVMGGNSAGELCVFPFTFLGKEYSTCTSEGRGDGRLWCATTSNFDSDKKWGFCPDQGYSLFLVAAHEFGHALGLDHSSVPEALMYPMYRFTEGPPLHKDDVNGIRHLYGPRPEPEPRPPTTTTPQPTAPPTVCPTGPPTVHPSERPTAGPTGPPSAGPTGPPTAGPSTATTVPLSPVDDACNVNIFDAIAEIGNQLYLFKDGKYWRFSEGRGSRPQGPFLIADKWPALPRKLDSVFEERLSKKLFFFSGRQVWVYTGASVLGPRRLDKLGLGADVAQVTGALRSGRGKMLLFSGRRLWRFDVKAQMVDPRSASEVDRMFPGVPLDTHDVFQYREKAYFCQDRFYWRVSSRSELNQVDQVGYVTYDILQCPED
Description: as §1, §2, §3

TACE = target: T2, TACE (Homo sapiens, UniProt P78536); assay: TACE inhibition (fluorescent peptidyl substrate); assay type: biochemical
T2 construct: purchased Immunex
T2 sequence (P78536 215-824): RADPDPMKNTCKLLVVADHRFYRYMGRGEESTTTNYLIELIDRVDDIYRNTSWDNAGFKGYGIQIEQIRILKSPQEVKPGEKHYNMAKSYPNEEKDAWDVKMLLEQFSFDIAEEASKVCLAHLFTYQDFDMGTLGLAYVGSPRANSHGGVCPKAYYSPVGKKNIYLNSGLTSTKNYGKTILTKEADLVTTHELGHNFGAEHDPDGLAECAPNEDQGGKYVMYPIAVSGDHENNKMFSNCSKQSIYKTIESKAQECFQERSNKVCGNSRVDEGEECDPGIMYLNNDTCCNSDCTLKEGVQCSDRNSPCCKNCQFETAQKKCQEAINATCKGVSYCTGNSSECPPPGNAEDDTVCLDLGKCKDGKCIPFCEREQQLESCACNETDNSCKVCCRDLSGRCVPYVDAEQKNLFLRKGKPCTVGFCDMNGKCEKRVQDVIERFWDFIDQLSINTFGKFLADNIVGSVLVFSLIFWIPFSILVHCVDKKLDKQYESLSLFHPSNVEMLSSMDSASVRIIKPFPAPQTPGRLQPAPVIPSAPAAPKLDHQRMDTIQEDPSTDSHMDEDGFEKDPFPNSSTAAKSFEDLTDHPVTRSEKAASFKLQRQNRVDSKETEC
Description: Procedure for Measuring TACE Inhibition
Using 96-well black microtiter plates, each well receives a solution composed of 10 μL TACE (Immunex, final concentration 1 μg/mL), 70 μL Tris buffer, pH 7.4 containing 10% glycerol (final concentration 10 mM), and 10 μL of test compound solution in DMSO (final concentration 1 μM, DMSO concentration <1%) and incubated for 10 minutes at room temperature.
The reaction is read (excitation 340 nm, emission 420 nm) for 10 min. and the increase in fluorescence over time is plotted as a linear line. The slope of the line is calculated and represents the reaction rate.
The linearity of the reaction rate is confined (r^2 >0.85). The mean (x±sem) of the control rate is calculated and compared for statistical significance (p<0.05) with drug-treated rates using Dunnert's multiple comparison test.

MMP9 = assay: In vivo MMP inhibition (implanted dialysis tubing containing MMP enzyme); parameters: species or system rat (Sprague-Dawley) or mouse (CD-1)
Description: Drugs are administered PO, IP, SC or IV through a canula in the jugular vein. […] Contents of the dialysis tubing is collected and enzyme activity assayed.
Enzyme reaction rates for each dialysis tube are calculated. Tubes from at least 3 different animals are used to calculate the meani sem. Statistical significance (p<0.05) of vehicle-treated animals versus drug-treated animals is determined by analysis of variance.

MMP-13 = MMP-13 (Homo sapiens, UniProt P45452); assay: MMP-13 inhibition (thiopeptide/DTNB or fluorescent peptide substrate); assay type: biochemical
Description: as §1
Alternatively, a fluorescent peptide substrate is used. In this assay, the peptide substrate contains a fluorescent group and a quenching group. Upon cleavage of the substrate by an MMP, the fluorescence that is generated is quantitated on the fluorescence plate reader. The assay is run in HCBC assay buffer (50 mM HEPES, pH 7.0, 5 mM Ca^+2, 0.02% Brij, 0.5% Cysteine), with human recombinant MMP-1, MMP-9, or MMP-13. The substrate is dissolved in methanol and stored frozen in 1 mM aliquots. For the assay, substrate and enzymes are diluted in HCBC buffer to the desired concentrations. […]
For either the thiopeptide or fluorescent peptide assays, the slope of the line is calculated and represents the reaction rate. […] The mean (x±sem) of the control rate is calculated and compared for statistical significance (p<0.05) with drug-treated rates using Dunnett's multiple comparison test.

Compound `CCCCCCCCN(c1c(CN2CCN(C)CC2)cccc1C(=O)NO)S(=O)(=O)c1ccc(OC)cc1` [Example 325, N-Hydroxy-2-[(4-methoxy-benzenesulfonyl)-octyl-amino] -3-(4-methyl-piperazin-1-ylmethyl)-benzamide] has an IC50 (MMP-1) of 20 nM.

`Cc1cccc(C(=O)NO)c1N(C)S(=O)(=O)c1ccc(Oc2ccncc2)cc1` [Example 417] was tested, and the IC50 (MMP-9) was 6.8 nM and the IC50 (MMP-1) was 3240 nM.

`COc1ccc(S(=O)(=O)N(Cc2ccccc2)c2c(Cl)cccc2C(=O)NO)cc1` [Example 24, 2-[Benzyl-(4-methoxy-benzenesulfonyl)-amino]-3-chloro-N-hydroxy-benzamide] was tested, and the IC50 (TACE; read-out: TACE IC50) was 1000 nM.

In the case of `CCCN(c1c(C)cc(C)cc1C(=O)NO)S(=O)(=O)c1ccc(OC)cc1` [Example 117, N-Hydroxy-2-[(4-methoxy-benzenesulfonyl)-propyl-amino]-3,5-dimethyl-benzamide], the “in-vivo MMP % inhibition vs. MMP9” value (MMP9; 100 mg/kg, ip) is reported as 28.3%.

Work on `COc1ccc(S(=O)(=O)N(Cc2cccnc2)c2c(C(=O)NO)cc(C)cc2-c2cccs2)cc1` [Example 145, N-Hydroxy-2-[(4-methoxy-benzenesulfonyl)-pyridin-3-ylmethyl-amino]-5-methyl-3-thiophen-2-yl-benzamide] yielded an IC50 (MMP-9) of 7 nM, an IC50 (MMP-1) of 55 nM and an IC50 (MMP-13; read-out: MMP-13 IC50) of 3 nM. The IC50 (TACE; read-out: TACE IC50) was 158 nM.

In the case of `COc1ccc(S(=O)(=O)N(Cc2ccccc2)c2c(C)cc(Br)cc2C(=O)NO)cc1` [Example 25, 2-[Benzyl-(4-methoxy-benzenesulfonyl)-amino]-5-bromo-N-hydroxy-3-methyl-benzamide], the “in-vivo MMP % inhibition vs. MMP9” value (MMP9; 100 mg/kg, ip) is reported as 32%.

For `COc1ccc(S(=O)(=O)N(Cc2cccnc2)c2c(C)cc(Br)cc2C(=O)NO)cc1` [Example 91, 5-Bromo-N-hydroxy-2-[(4-methoxy-benzenesulfonyl)-pyridin-3-ylmethyl-amino]-3-methyl-benzamide], the “in-vivo MMP % inhibition vs. MMP9” value (MMP9; 100 mg/kg, po) was 55%.

With `COc1ccc(S(=O)(=O)N(Cc2ccccc2)c2c(OCc3ccccc3)cccc2C(=O)NO)cc1` [Example 34, 2-[Benzyl-(4-methoxy-benzenesulfonyl)-amino]-3-benzyloxy-N-hydroxy-benzamide] the “in-vivo MMP % inhibition vs. MMP9” value (MMP9; 100 mg/kg, ip) was 31.6%.

For `COc1ccc(S(=O)(=O)N(Cc2cccnc2)c2c(OCc3cccnc3)cccc2C(=O)NO)cc1` [Example 61], the IC50 (MMP-9) was 34 nM, the “in-vivo MMP % inhibition vs. MMP9” value (MMP9; 20 mg/kg, po) was 46% and the “in-vivo MMP % inhibition vs. MMP9” value (MMP9; 50 mg/kg, po) was 59%. The IC50 (MMP-13) was 33 nM and the IC50 (TACE) was 289 nM.
